# Measurements from ChEMBL document CHEMBL1201862, “PubChem BioAssay data set” (2004).
#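 Five compound concentrations were applied to cells in 96-well plates for 48 hours; endpoints were derived by simple linear interpolation of the resulting dose-response curve. GI50 marks 50% less growth.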 The source made the active and inactive calls. Cut-off read from the data, not from the text of the source: active = GI50 up to about 1.1 µM and inactive = higher.
# Tests used:
# Experiment in all cases: growth of human tumour cells (NCI), 48 h
# [1] = tested on: 786-0
# [2] = tested on: A498
# [3] = tested on: A549
# [4] = tested on: ACHN
# [5] = tested on: CCRF-CEM
# [6] = tested on: COLO 205
# [7] = tested on: DLD-1
# [8] = tested on: DMS-114
# [9] = tested on: EKVX
# [10] = tested on: HCC 2998
# [11] = tested on: HCT-116
# [12] = tested on: HCT-15
# [13] = tested on: HL-60
# [14] = tested on: HOP-18
# [15] = tested on: HOP-62
# [16] = tested on: HT-29
# [17] = tested on: K562
# [18] = tested on: KM-20L2
# [19] = tested on: KM12
# [20] = tested on: LOX IMVI
# [21] = tested on: LXFL 529
# [22] = tested on: M14
# [23] = tested on: M19-MEL
# [24] = tested on: MOLT-4
# [25] = tested on: Malme-3M
# [26] = tested on: NCI-H226
# [27] = tested on: NCI-H23
# [28] = tested on: NCI-H460
# [29] = tested on: NCI-H522
# [30] = tested on: OVCAR-3
# [31] = tested on: OVCAR-4
# [32] = tested on: OVCAR-5
# [33] = tested on: OVCAR-8
# [34] = tested on: RPMI-8226
# [35] = tested on: RXF 393
# [36] = tested on: SF-268
# [37] = tested on: SF-295
# [38] = tested on: SF-539
# [39] = tested on: SK-MEL-28
# [40] = tested on: SK-MEL-2
# [41] = tested on: SK-OV-3
# [42] = tested on: SN12C
# [43] = tested on: SNB-19
# [44] = tested on: SNB-75
# [45] = tested on: SNB-78
# [46] = tested on: SW-620
# [47] = tested on: TK-10
# [48] = tested on: U-251
# [49] = tested on: UACC-257
# [50] = tested on: UACC-62
# [51] = tested on: UO-31
# [52] = tested on: XF498
# [53] = tested on: CAKI-1
# [54] = tested on: DMS-273
# [55] = tested on: DU-145
# [56] = tested on: HOP-92
# [57] = tested on: IGROV-1
# [58] = tested on: SK-MEL-5
# [59] = tested on: SR
compound,measurement,setting,value
COC(=O)/C(=N\NC(N)=O)C(C#N)c1ccccc1 (stereo not given),GI50,[1],> 100 µM (inactive)
same,GI50,[2],> 100 µM (inactive)
same,GI50,[3],> 100 µM (inactive)
same,GI50,[4],> 100 µM (inactive)
same,GI50,[5],> 100 µM (inactive)
same,GI50,[6],> 100 µM (inactive)
same,GI50,[7],> 100 µM (inactive)
same,GI50,[8],> 100 µM (inactive)
same,GI50,[9],> 100 µM (inactive)
same,GI50,[10],> 100 µM (inactive)
same,GI50,[11],> 100 µM (inactive)
same,GI50,[12],> 100 µM
same,GI50,[13],> 100 µM (inactive)
same,GI50,[14],> 100 µM (inactive)
same,GI50,[15],> 100 µM (inactive)
same,GI50,[16],> 100 µM (inactive)
same,GI50,[17],> 100 µM (inactive)
same,GI50,[18],> 100 µM (inactive)
same,GI50,[19],> 100 µM (inactive)
same,GI50,[20],> 100 µM (inactive)
same,GI50,[21],> 100 µM (inactive)
same,GI50,[22],> 100 µM (inactive)
same,GI50,[23],> 100 µM (inactive)
same,GI50,[24],> 100 µM (inactive)
same,GI50,[25],> 100 µM (inactive)
same,GI50,[26],> 100 µM (inactive)
same,GI50,[27],> 100 µM (inactive)
same,GI50,[28],> 100 µM (inactive)
same,GI50,[29],> 100 µM (inactive)
same,GI50,[30],> 100 µM (inactive)
same,GI50,[31],> 100 µM (inactive)
same,GI50,[32],> 100 µM (inactive)
same,GI50,[33],> 100 µM (inactive)
same,GI50,[34],> 100 µM (inactive)
same,GI50,[35],> 100 µM (inactive)
same,GI50,[36],> 100 µM (inactive)
same,GI50,[37],> 100 µM (inactive)
same,GI50,[38],> 100 µM (inactive)
same,GI50,[39],> 100 µM (inactive)
same,GI50,[40],> 100 µM (inactive)
same,GI50,[41],> 100 µM (inactive)
same,GI50,[42],> 100 µM (inactive)
same,GI50,[43],> 100 µM (inactive)
same,GI50,[44],> 100 µM (inactive)
same,GI50,[45],> 100 µM (inactive)
same,GI50,[46],> 100 µM (inactive)
same,GI50,[47],> 100 µM (inactive)
same,GI50,[48],> 100 µM (inactive)
same,GI50,[49],> 100 µM (inactive)
same,GI50,[50],> 100 µM (inactive)
same,GI50,[51],> 100 µM (inactive)
same,GI50,[52],75.5 µM (inactive)
CC(=O)N/C=C/c1cc(O)ccc1O,GI50,[1],33.2 µM (inactive)
same,GI50,[2],51.3 µM (inactive)
same,GI50,[3],> 61.8 µM (inactive)
same,GI50,[4],18.9 µM (inactive)
same,GI50,[53],16.6 µM (inactive)
same,GI50,[5],25.3 µM (inactive)
same,GI50,[6],29.1 µM (inactive)
same,GI50,[7],27.2 µM (inactive)
same,GI50,[54],> 67.5 µM (inactive)
same,GI50,[55],41.3 µM (inactive)
same,GI50,[9],45.2 µM (inactive)
same,GI50,[10],50.8 µM (inactive)
same,GI50,[11],32.5 µM (inactive)
same,GI50,[12],40.8 µM
same,GI50,[13],10.1 µM (inactive)
same,GI50,[14],16.4 µM (inactive)
same,GI50,[15],> 41 µM (inactive)
same,GI50,[56],18.7 µM (inactive)
same,GI50,[16],32.1 µM (inactive)
same,GI50,[57],> 55.1 µM (inactive)
same,GI50,[17],35.9 µM (inactive)
same,GI50,[18],40.8 µM (inactive)
same,GI50,[19],37.7 µM (inactive)
same,GI50,[20],30.1 µM (inactive)
same,GI50,[21],12.7 µM (inactive)
same,GI50,[22],33.3 µM (inactive)
same,GI50,[23],31.5 µM (inactive)
same,GI50,[24],11.9 µM (inactive)
same,GI50,[25],> 44.6 µM (inactive)
same,GI50,[26],46.3 µM (inactive)
same,GI50,[27],34.4 µM (inactive)
same,GI50,[28],> 60.7 µM (inactive)
same,GI50,[29],3.67 µM (inactive)
same,GI50,[30],16 µM (inactive)
same,GI50,[31],32.6 µM (inactive)
same,GI50,[32],29.4 µM (inactive)
same,GI50,[33],45.7 µM (inactive)
same,GI50,[34],40.3 µM (inactive)
same,GI50,[35],31.7 µM (inactive)
same,GI50,[36],31.8 µM (inactive)
same,GI50,[37],32.3 µM (inactive)
same,GI50,[38],35.5 µM (inactive)
same,GI50,[39],32.8 µM (inactive)
same,GI50,[40],34.9 µM (inactive)
same,GI50,[58],36.5 µM (inactive)
same,GI50,[41],> 58.5 µM (inactive)
same,GI50,[42],29.9 µM (inactive)
same,GI50,[43],> 52.7 µM (inactive)
same,GI50,[44],48.3 µM (inactive)
same,GI50,[45],> 47.8 µM (inactive)
same,GI50,[59],22 µM (inactive)
same,GI50,[46],13.9 µM (inactive)
same,GI50,[47],39.2 µM (inactive)
same,GI50,[48],37.2 µM (inactive)
same,GI50,[49],31 µM (inactive)
same,GI50,[50],32.2 µM (inactive)
same,GI50,[51],23.4 µM (inactive)
same,GI50,[52],18.1 µM (inactive)
